According to patent publication US20210244686A1, “Novel Systems And Methods For The Therapeutic Use of Cannabinoids or Cannabinoid Analogs to Increase The Lipid Order of Cholesterol Containing Cell Membranes” (The Regents of the University of Colorado a body corporate, priority 2018, published 2021):

Tests used:
[1] = test system: SKNBE2 neuroblastoma cells; experiment: Flow cytometric analysis of rhodamine-glibenclamide staining in live cells; format: cell-based, human; conditions: live cells, flow cytometry
HEK293T cells = experiment: Live cell microscopy apoptosis assay (caspase 3/7 dye); format: cell-based; conditions: for apoptotic response to combinatorial 25-hydroxy cholesterol/CBD treatment: 25-hydroxy cholesterol 15 μg/ml, CBD 20 μM, U18666A 10 μM or VULM 1457 5 μM, 24 hours
Method: In order to gain further insight into the sensitivity of CBD treated cells to 25-hydroxy cholesterol, the present inventors repeated the apoptosis assay in SK-N-BE(2) and HEK293T cells with combinatorial 25-hydroxy cholesterol/CBD stimulation using sublethal doses of 25-hydroxy cholesterol (15 μg/ml) and CBD (20 μM) in the presence or absence of either the chemical inhibitor of cholesterol transport (U18666A, 10 μM) or cholesterol storage (VULM 1457, 5 μM).
FRAP experiments reveal that DHA and CBD have opposing effects on the lateral diffusion of fluorescently labelled cholesterol in synthetic membranes. Although this implies that CBD increases lipid order and that DHA decreases lipid order, it remains unclear how relevant these biophysical effects of CBD and DHA are to cellular physiology. As a result, the present inventors sought to determine whether CBD and DHA have opposing effects on cells. To this end, the present inventors repeated the live cell apoptosis assays in cells exposed to increasing doses of DHA to determine how DHA affects cell death.

SK-N-BE(2) cells = experiment: as above; conditions: for apoptotic response to combinatorial 25-hydroxy cholesterol/CBD treatment: 25-hydroxy cholesterol 15 μg/ml, CBD 20 μM, U18666A 10 μM or VULM 1457 5 μM, 24 hours
Method: To accurately measure cellular apoptosis over time, the present inventors performed live cell microscopy experiments with cells loaded with both DNA and caspase 3/7 dyes, which enables continuous and precise quantification of apoptosis at the single cell level.
Cell viability for SK-N-BE(2) cells was conducted using a fluorometric cell viability assay using Resazurin (PromoKine) according to the manufacturer's instructions. […] Dyes were added at the time of seeding, 18-24 hours prior to performing experiments.
Experiments were performed using an ImageXpress MicroXL microscope and a 10× objective, where images were acquired for each well at the indicated time-points using DAPI and FITC filter sets. […] Percent apoptotic cells was calculated from the sum of apoptotic cell pixels divided by the sum of all cell pixels for each field of view.

[2] = test system: endoplasmic reticulum in SKNBE2 and HaCaT keratinocyte cells; experiment: Confocal microscopy of rhodamine-glibenclamide staining, ER structure; format: cell-based, human; conditions: for alteration of the structure of the endoplasmic reticulum: SKNBE2 and HaCaT keratinocyte cells
Method: FIG. 16. Rhodamine-glibenclamide staining in live cells is visualized by confocal microscopy in live cells. ER structure is perturbed after 2 hours of exposure to CBD and o-1602, but not for o-1821 exposure.

[3] = FRAP of NBD-cholesterol in synthetic membrane monolayers; conditions: DHA 20 μM plus CBD
Source text: CBD's ability to affect cholesterol orientation in both synthetic and cell derived ER membranes implies that CBD may contribute to increased lipid order. The ability of cholesterol oxidase assays to reveal alterations in lipid order has been previously reported in studies noting that cholesterol oxidase can preferentially target caveolar domains, which are ordered lipid domains. Another hallmark of lipid order is a decrease in lateral diffusion of lipids. As a result, the present inventors aimed to measure CBD's ability to perturb the lateral diffusion of fluorescently labelled cholesterol (NBD-cholesterol) in synthetic membranes. The present inventors deposited PC SUVs containing 20% moles of cholesterol and 2% moles NBD-cholesterol on glass-bottom multi-well imaging plates, followed by ultra-sonification to construct fluorescently labelled membrane monolayers. Using these monolayers and confocal microscopy, the inventor's performed fluorescence recovery after photobleaching (FRAP) experiments to measure the kinetics of recovery of fluorescent cholesterol. […] This effect of CBD on lateral diffusion could be rescued with simultaneous treatment with the lipid disordering agent DHA (FIGS. 6G, I). There are two proposed models for how DHA affects cholesterol in membranes. […]

[4] = DHA 75 μM with MBCD 300 μM or CBD 6.25 μM

Compound	rhodamine-glibenclamide fluorescence [1]	alteration of the structure of the endoplasmic reticulum [2]	further results
CC(C)c1c(C(=O)Nc2ccccc2)c(-c2ccccc2)c(-c2ccc(F)cc2)n1CC[C@@H](O)C[C@@H](O)CC(=O)O [Atorvastatin]	Enhanced fluorescence	–	–
CCN(CC)CCO[C@H]1CC[C@@]2(C)C(=CC[C@@H]3[C@@H]2CC[C@]2(C)C(=O)CC[C@@H]32)C1 [U18666A]	–	–	apoptotic response to combinatorial 25-hydroxy cholesterol/CBD treatment (HEK293T cells): restore the apoptotic response; apoptotic response to combinatorial 25-hydroxy cholesterol/CBD treatment (SK-N-BE(2) cells): restore the apoptotic response
O=C1[C@H](CC[C@H](O)c2ccc(F)cc2)[C@@H](c2ccc(O)cc2)N1c1ccc(F)cc1 [Ezetimibe]	Enhanced fluorescence	–	–
CCCCCCC(C)(C)c1cc(OC)c(C2C=C(CO)C3CC2C3(C)C)c(OC)c1 (stereo not drawn) [HU-308, 4-[4-(1,1-dimethylheptyl)-2,6-dimethoxyphenyl]-6,6-dimethyl-bicyclo[3.1.1]hept-2-ene-2-methanol]	Enhanced fluorescence	–	–
CC(C)c1cccc(C(C)C)c1NC(=O)Nc1ccc(Sc2ccc([N+](=O)[O-])cc2)cc1 [VULM 1457]	–	–	apoptotic response to combinatorial 25-hydroxy cholesterol/CBD treatment (HEK293T cells): restore the apoptotic response; apoptotic response to combinatorial 25-hydroxy cholesterol/CBD treatment (SK-N-BE(2) cells): restore the apoptotic response
C[C@H](CO)NC(=O)CCC/C=C\C/C=C\C/C=C\C/C=C\C(C)(C)CCCCC#N [o-1821]	Enhanced fluorescence	not	–
methyl beta cyclodextrin [MBCD]	–	–	effect on DHA induced apoptosis (HEK293T cells; [4]): delay apoptosis; effect on DHA induced apoptosis (SK-N-BE(2) cells; [4]): completely cancel apoptosis
C=C(C)[C@@H]1CCC(C)=C[C@H]1c1c(O)cc(CCCCC)c(C(=O)O)c1O [Cannabidiolic Acid, cannabidiolic acid]	Enhanced fluorescence	not	–
C=C(C)[C@@H]1CCC(C)=C[C@H]1c1c(C)cc(O)cc1O [o-1602, 5-methyl-4-[(1R,6R)-3-methyl-6-(1-methylethenyl)-2-cyclohexen-1-yl]-1,3-benzenediol]	Enhanced fluorescence	observed	ER structure ([2]; after 2 hours of exposure, live cells): perturbed
C=C(C)[C@@H]1CCC(C)=C[C@H]1c1c(O)cc(O)cc1CCCCC [abnormal CBD, 4-[(1R,6R)-3-Methyl-6-(1-methylethenyl)-2-cyclohexen-1-yl]-5-pentyl-1,3-benzenediol]	Enhanced fluorescence	not	–
CC/C=C\C/C=C\C/C=C\C/C=C\C/C=C\C/C=C\CCC(=O)O [DHA]	–	–	apoptosis (HEK293T cells; relatively low doses of DHA): induce apoptosis; apoptosis (SK-N-BE(2) cells; relatively low doses of DHA): induce apoptosis; effect of CBD on lateral diffusion with simultaneous DHA [3]: rescued
